Data: article PMC8791557 (Environment international, 2021)
Where two headings read alike, the source gives them in different places.

Tests used:
[1] = human, in vivo; cited from earlier work
[2] = type: in vivo, human; conditions: for k1e / k12 / k21 / ka / α / β: two-compartmental model; for Tmax of metabolite: median
[3] = 50 ng [14C]-BaP oral, mean ± SD
[4] = 100 ng [14C]-BaP oral, mean ± SD
[5] = 250 ng [14C]-BaP oral, mean ± SD
[6] = metabolite in plasma after 25 ng [14C]-BaP oral
[7] = metabolite in plasma after 50 ng [14C]-BaP oral
[8] = metabolite in plasma after 100 ng [14C]-BaP oral
[9] = metabolite in plasma after 250 ng [14C]-BaP oral

For c1ccc2c(c1)cc1ccc3cccc4ccc2c1c34 [[^14C]-BaP, Benzo[a]pyrene], the Tmax [1] is listed as 0.75 to 1.0 h, the k1e ([2]; 25 ng [14C]-BaP oral, n = 1) is listed as 0.0068 NA 1/h and the k12 ([2]; 25 ng [14C]-BaP oral, n = 1) is listed as 0.331 NA 1/h. It also gave a k21 ([2]; 25 ng [14C]-BaP oral, n = 1) of 0.028 NA 1/h, a ka ([2]; 25 ng [14C]-BaP oral, n = 1) of 592 NA 1/h and a α ([2]; 25 ng [14C]-BaP oral, n = 1) of 0.366 NA 1/h. For the same compound, the β ([2]; 25 ng [14C]-BaP oral, n = 1) was 5.03 × 10^−4 NA 1/h, the k1e [2, 3] was 0.694 ± 0.412 n = 5 1/h and the k12 [2, 3] was 0.83 ± 1.11 n = 5 1/h. The k21 [2, 3] was 0.270 ± 0.253 n = 5 1/h, the ka [2, 3] was 1.30 × 10^7 ± 2.90 × 10^7 n = 5 1/h and the α [2, 3] was 1.69 ± 0.89 n = 5 1/h. The β [2, 3] was 0.105 ± 0.164 n = 5 1/h, the k1e [2, 4] was 0.558 ± 0.897 n = 6 1/h and the k12 [2, 4] was 2.60 ± 3.45 n = 6 1/h. The k21 [2, 4] was 0.190 ± 0.180 n = 6 1/h, the ka [2, 4] was 3.52 ± 4.75 n = 6 1/h and the α [2, 4] was 3.33 ± 4.28 n = 6 1/h. For the same compound, the β [2, 4] was 0.020 ± 0.021 n = 6 1/h, the k1e [2, 5] was 1.25 ± 1.71 n = 7 1/h and the k12 [2, 5] was 4.27 ± 6.92 n = 7 1/h. For the same compound, the k21 [2, 5] was 0.290 ± 0.564 n = 7 1/h, the ka [2, 5] was 43.2 ± 111 n = 7 1/h and the α [2, 5] was 5.80 ± 6.64 n = 7 1/h. For the same compound, the β [2, 5] was 0.014 ± 0.019 n = 7 1/h, the “increase of compartmental model apparent volume of distribution” value ([2]; both, human, in vivo) was 4.6 × and the “increase of mean non-compartmental apparent volume of distribution” value ([2]; both, human, in vivo) was 15 ×. It also gave a Tmax ([2]; both, human, in vivo, Tmax) of 0.5 to 1 h, a half-life ([2]; both, human, in vivo, average half-life across doses) of 46.5 ± 58.2 h and a Tmax ([2]; both, human, in vivo, median Tmax) of 0.5 h. It also gave a Tmax ([2]; both, human, in vivo, po, Tmax (Median)) of 0.5 h, a Tmax ([2]; both, human, in vivo, po, Tmax (Range)) of 0.5 to 4 h and a Tmax ([2]; both, human, in vivo, po, median Tmax) of 0.5 h. For the same compound, the half-life ([2]; both, human, in vivo, po, α half-life) was 0.484 ± 0.187 h, the “AUC0–48h, range of dose-group means” value ([2]; human, in vivo) was 12.2 ± 14.5 to 88.5 ± 14.1 and the “Cmax, range of dose-group means” value ([2]; human, in vivo) was 2.51 ± 2.53 to 13.8 ± 9.52. For the same compound, the Clearance ([2]; human, in vivo, po) was 811 n = 1 L/h, the half-life ([2]; human, in vivo, po, Half-life) was 4.31 h and the half-life ([2]; human, in vivo, po, α half-life) was 1.89 h. The half-life ([2]; human, in vivo, po, β half-life) was 1310 h.
For Oc1ccc2ccc3c4ccccc4cc4ccc1c2c43 [3-OH, 3 - OH BaP], the Tmax of metabolite [2, 6] was 1.0 h, the Tmax of metabolite [2, 7] was 1.25 h and the Tmax of metabolite [2, 8] was 1.0 h. The Tmax of metabolite [2, 9] was 1.5 h.
For Oc1ccc2cc3ccc4cccc5ccc(c2c1)c3c45 [9-OH, 9 - OH BaP], the Tmax of metabolite [2, 6] was 0.5 h, the Tmax of metabolite [2, 7] was 1.0 h and the Tmax of metabolite [2, 8] was 1.0 h. The Tmax of metabolite [2, 9] was 0.75 h.
